Common to all, as to experiment: NCI tumour cell line growth inhibition, 48 h
For experiment [1], the system named is OVCAR-3.
The test system of experiment [2] is A498.
For experiment [3], the system named is MDA-MB-231.
Experiment [4] deals with SK-MEL-28.
In experiment [5] the test system is HCT-15.
For experiment [6], the system named is SR.
For experiment [7], the system named is Hs-578T.
Experiment [8] concerns HT-29.
For experiment [9], the system named is RXF 393.
Experiment [10] concerns TK-10.
Experiment [11] has as its system OVCAR-4.
The test system of experiment [12] is HL-60.
In experiment [13] the test system is OVCAR-8.
Experiment [14] concerns K562.
Experiment [15] deals with HCT-116.
Experiment [16] relates to UACC-257.
The test system of experiment [17] is T47D.
The test system of experiment [18] is SK-OV-3.
Experiment [19] has as its system OVCAR-5.
The subject of experiment [20] is Malme-3M.

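Grown in 96-well plates, cells were treated for 48 hours with each compound at five concentrations. Insufficient inhibition: endpoint recorded as highest concentration tested. GI50: concentration for 50% inhibition of growth.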 The source made the active and inactive calls. No stated cut-off is given here; in the data, active = GI50 up to about 1.1 µM and inactive = higher.

For the compound `C=C(CO)C(=O)OC1CC(=C)C2CC(O)C(C)C2C2OC(=O)C(=C)C12` (stereo not given), the GI50 in experiment [1] was 16 µM (inactive); in experiment [2], 39.6 µM (inactive); in [3], 20 µM (inactive); in experiment [4], 24.3 µM (inactive); in experiment [5], 19.1 µM; in [6], 19.3 µM (inactive). Moreover, the GI50 in experiment [7] is 18.4 µM (inactive); in [8] it was 24.7 µM (inactive); in experiment [9], 20 µM (inactive); in [10], 16.3 µM (inactive); in [11], 61.1 µM (inactive); in [12], 25.8 µM (inactive). The GI50 in [13] is 27.3 µM (inactive); in experiment [14], 31.3 µM (inactive); in [15] it was 33.2 µM (inactive); in experiment [16], 15.6 µM (inactive); in [17], 49.4 µM (inactive); in [18], 30.4 µM (inactive). In addition, the figures for the GI50 in [19] and in [20] were 30.9 µM (inactive) and 21.3 µM (inactive), respectively.
With `COC1CC(CC2CCC(C)C(C(C)C(=O)O)O2)OC2(OC(C)(C3CCC(C)(C4OC(C5OC(O)(CO)C(C)CC5C)CC4C)O3)CC2C)C1C` (stereo not given), the GI50 in experiment [1] was 0.0406 µM (active); in [2] it was 0.22 µM (active); in [3], 1.53 µM (inactive); in [4], 1.43 µM (inactive); in experiment [5] it was 1.85 µM; in experiment [6], 0.0634 µM (active). In addition, the GI50 in experiment [7] is 0.91 µM (active); in experiment [8] it was 0.183 µM (active); in experiment [9] it was < 0.0109 µM (active); in [10] it was 5.36 µM (inactive); in experiment [11], 6.56 µM (inactive); in [12], 0.0363 µM (active). The GI50 in [13] is 1.38 µM (inactive); in experiment [14], 0.0502 µM (active); in experiment [15], 0.759 µM (active); in [16], 0.0578 µM (active); in experiment [17] it was 0.284 µM (active); in [18] it was 7.4 µM (inactive). For the same compound, the GI50 in experiment [19] was 8.11 µM (inactive); in experiment [20], 0.0923 µM (active).
For `NCC[Se][Se]CCN`, the GI50 in [1] was 13.9 µM (inactive); in experiment [2], 9.18 µM (inactive); in [3] it was 12.8 µM (inactive); in experiment [4], 13.3 µM (inactive); in experiment [5], 6.24 µM; in [6], 10.1 µM (inactive). The GI50 is 12.4 µM (inactive) in experiment [7]; 10 µM (inactive) in [8]; 15.6 µM (inactive) in experiment [9]; 13.3 µM (inactive) in [10]; 11.8 µM (inactive) in experiment [11]; 1.8 µM (inactive) in experiment [12]. Further, the GI50 in experiment [13] was 10.6 µM (inactive); in experiment [14], 16.6 µM (inactive); in experiment [15] it was 4.28 µM (inactive); in experiment [16], 7.06 µM (inactive); in experiment [17], 5.58 µM (inactive); in experiment [18] it was 8.15 µM (inactive). In addition, the GI50 in experiment [19] is 5.56 µM (inactive); in [20], 11.9 µM (inactive).
In the case of `C[C@H]1COC2=C1C(=O)C(=O)c1c2ccc2c1CCCC2(C)C` [CRYPTOTANSHINONE], the GI50 in [1] is 0.326 µM (active); in experiment [2], 18.3 µM (inactive); in experiment [3] it was 12 µM (inactive); in experiment [4] it was 3.19 µM (inactive); in experiment [5], 1.94 µM; in experiment [6], 3.42 µM (inactive). For the same compound, the GI50 in experiment [7] is 2.29 µM (inactive); in [8], 2.18 µM (inactive); in [9], 6.3 µM (inactive); in experiment [10], 8.18 µM (inactive); in experiment [11] it was 12.2 µM (inactive); in experiment [12], 2.39 µM (inactive). Moreover, the GI50 is 2.58 µM (inactive) in experiment [13]; 3.61 µM (inactive) in experiment [14]; 2.96 µM (inactive) in [15]; 1.95 µM (inactive) in experiment [16]; 9.46 µM (inactive) in experiment [17]; 11.6 µM (inactive) in experiment [18]. In addition, the GI50 in experiment [19] is 16.1 µM (inactive); in experiment [20], 0.305 µM (active).

The record behind these values is ChEMBL document CHEMBL1201862, “PubChem BioAssay data set” (2004).
